Key:
[1] = molecular target: Poly [ADP-ribose] polymerase 1 (Homo sapiens, UniProt P09874); assay: Inhibition of PARP1 (unknown origin) incubated for 45 mins in presence of biotinylated-NAD+ by microplate reader analysis
SW1990 = assay: Antiproliferative activity against human SW1990 cells assessed as reduction in cell viability after 4 days by MTT assay; type: functional, cell-based; details: SW1990, 96 h
MDA-MB-231 = assay: Antiproliferative activity against human MDA-MB-231 cells assessed as reduction in cell viability after 7 days; type: functional, cell-based; details: MDA-MB-231, 168 h
[2] = molecular target: T1, Bromodomain-containing protein 4 (Homo sapiens, UniProt O60885); assay: Inhibition of recombinant BRD4 (unknown origin) at 0.5 uM incubated for 120 mins by TR-FRET assay relative to control
[3] = molecular target: T1, Bromodomain-containing protein 4; assay: Inhibition of recombinant BRD4 (unknown origin) incubated for 120 mins by TR-FRET assay

Poly [ADP-ribose] polymerase 1, sequence (P09874 whole entry): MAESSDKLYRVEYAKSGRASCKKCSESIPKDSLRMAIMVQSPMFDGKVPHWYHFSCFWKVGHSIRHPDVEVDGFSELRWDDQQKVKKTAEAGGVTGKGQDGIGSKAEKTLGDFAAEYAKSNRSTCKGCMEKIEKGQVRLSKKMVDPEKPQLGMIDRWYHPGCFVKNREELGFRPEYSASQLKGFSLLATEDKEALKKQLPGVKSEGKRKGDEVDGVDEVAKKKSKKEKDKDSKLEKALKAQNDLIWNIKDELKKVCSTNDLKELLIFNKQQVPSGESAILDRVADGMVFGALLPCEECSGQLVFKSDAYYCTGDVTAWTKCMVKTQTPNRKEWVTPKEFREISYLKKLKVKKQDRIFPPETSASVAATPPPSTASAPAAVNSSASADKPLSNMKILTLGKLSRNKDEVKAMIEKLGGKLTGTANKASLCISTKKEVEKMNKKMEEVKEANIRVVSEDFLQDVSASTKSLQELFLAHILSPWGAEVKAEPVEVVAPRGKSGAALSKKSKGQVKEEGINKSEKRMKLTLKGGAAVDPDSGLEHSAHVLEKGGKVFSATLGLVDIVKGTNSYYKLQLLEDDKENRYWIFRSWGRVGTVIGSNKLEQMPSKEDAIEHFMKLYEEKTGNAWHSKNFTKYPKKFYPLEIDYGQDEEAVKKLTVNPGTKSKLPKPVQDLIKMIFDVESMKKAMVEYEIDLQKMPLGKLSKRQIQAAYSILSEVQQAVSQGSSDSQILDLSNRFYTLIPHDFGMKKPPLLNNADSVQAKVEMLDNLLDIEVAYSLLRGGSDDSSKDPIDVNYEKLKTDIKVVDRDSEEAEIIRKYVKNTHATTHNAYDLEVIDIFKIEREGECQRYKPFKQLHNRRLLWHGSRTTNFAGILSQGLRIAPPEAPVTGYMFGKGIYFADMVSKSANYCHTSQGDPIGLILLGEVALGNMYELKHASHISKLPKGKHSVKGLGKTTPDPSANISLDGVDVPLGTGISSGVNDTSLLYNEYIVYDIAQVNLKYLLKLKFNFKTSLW

SMILES	IC50 [1] [nM]	IC50 (SW1990) [nM]	IC50 (MDA-MB-231) [nM]	inhibition [2] [%]	IC50 [3] [nM]
CC[C@@H]1C(=O)N(C)c2cnc(Nc3ccc(-c4nc5c(C(N)=O)cccc5[nH]4)cc3OC)nc2N1Cc1ccc(C)s1	338	3740	1250	52	–
CC[C@@H]1C(=O)N(C)c2cnc(Nc3ccc(-c4nc5c(C(N)=O)cccc5[nH]4)cc3OC)nc2N1Cc1cccc(C(F)(F)F)c1	1760	–	–	17	–
CC[C@@H]1C(=O)N(C)c2cnc(Nc3ccc(-c4nc5c(C(N)=O)cccc5[nH]4)cc3OC)nc2N1Cc1ccc(OC)cc1OC	570	–	–	17	–
CC[C@@H]1C(=O)N(C)c2cnc(Nc3cccc(-c4nc5c(C(N)=O)cccc5[nH]4)c3)nc2N1C1CCCC1	155	–	–	–	693
CC[C@@H]1C(=O)N(C)c2cnc(Nc3ccc(C(=O)NCc4nc5c(C(N)=O)cccc5[nH]4)cc3OC)nc2N1C1CCCC1	341	–	–	–	374
COc1cc(-c2nc3c(C(N)=O)cccc3[nH]2)ccc1Nc1ncc2c(n1)N(C1CCCC1)[C@H](C)C(=O)N2C	127	1620	470	–	250
COc1cc(-c2nc3c(C(N)=O)cccc3[nH]2)ccc1N(C)c1ncc2c(n1)N(C1CCCC1)[C@H](C)C(=O)N2C	25	1530	460	–	202
CC[C@@H]1C(=O)N(C)c2cnc(Nc3ccc(-c4nc5c(C(N)=O)cccc5[nH]4)cc3)nc2N1C1CCCC1	43	2810	830	–	842
CC[C@@H]1C(=O)N(C)c2cnc(Nc3ccc(-c4nc5c(C(N)=O)cccc5[nH]4)cc3OC)nc2N1C1CCCC1	150	2120	430	–	237
